This passage reports IC50 results from patent publication US20260053834A1, “COVALENT MODIFIERS OF AKT1 AND USES THEREOF” (Terremoto Biosciences, Inc., priority 2023, published 2026).

One assay deals with T1, AKT1 E17K (Homo sapiens, UniProt P31749, E17K).
T1 construct: expressed in transfected cells; host or cells: HEK293
Put plainly: Live cell target engagement by NanoBRET competitive probe displacement, AKT1 E17K. The following applies: transfected HEK293 cells, 2 h at 37° C., read-out: AKT1 E17K IC50: GeoMean IC50. Type of assay: binding. For orientation: In BRET a luciferase serves as donor, and the signal depends on an acceptor being close.

For the next assay, the target named is T2, AKT1 WT (Homo sapiens, UniProt P31749).
T2 construct: expressed in transfected cells; host or cells: HEK293
T2 sequence (P31749 whole entry): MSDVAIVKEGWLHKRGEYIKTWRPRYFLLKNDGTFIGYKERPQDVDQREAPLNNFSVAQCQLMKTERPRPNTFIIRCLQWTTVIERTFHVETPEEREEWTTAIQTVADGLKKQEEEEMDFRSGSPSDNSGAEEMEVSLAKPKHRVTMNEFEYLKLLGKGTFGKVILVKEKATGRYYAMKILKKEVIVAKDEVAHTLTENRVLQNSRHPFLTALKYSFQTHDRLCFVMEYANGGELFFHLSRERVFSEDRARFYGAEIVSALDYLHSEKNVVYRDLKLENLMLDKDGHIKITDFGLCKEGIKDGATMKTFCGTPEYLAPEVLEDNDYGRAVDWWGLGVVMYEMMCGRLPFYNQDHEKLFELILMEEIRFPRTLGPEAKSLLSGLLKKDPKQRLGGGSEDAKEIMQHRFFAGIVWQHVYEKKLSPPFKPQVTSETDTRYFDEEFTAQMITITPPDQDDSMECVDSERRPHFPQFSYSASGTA
Put plainly: Live cell target engagement by NanoBRET competitive probe displacement, AKT1 WT. Type of assay: binding. The following applies: transfected HEK293 cells, 2 h at 37° C., read-out: AKT1 WT IC50: GeoMean IC50.

The test system of assay [1] is LAPC4 prostate cancer cells, which express the AKT1 E17K allele. Put plainly: Antiproliferative effects in LAPC4 cells (CellTiter Glo, 72 h). Type of assay: cell-based. To be noted: Homo sapiens, LAPC4, 72 h, read-out: LAPC4 proliferation IC50: GeoMean IC50. An outline of the steps: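 IC50 values come from Hill-equation fitting of luminescence (cellular ATP) after 72 h compound exposure. Treated wells held 1,000 cells each, with compound delivered as DMSO dilutions. Culture medium was IMDM plus 12% FBS.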

Another assay deals with T3, AKT2 (Homo sapiens, UniProt P31751).
T3 construct: expressed in transfected cells; host or cells: HEK293
T3 sequence (P31751 whole entry): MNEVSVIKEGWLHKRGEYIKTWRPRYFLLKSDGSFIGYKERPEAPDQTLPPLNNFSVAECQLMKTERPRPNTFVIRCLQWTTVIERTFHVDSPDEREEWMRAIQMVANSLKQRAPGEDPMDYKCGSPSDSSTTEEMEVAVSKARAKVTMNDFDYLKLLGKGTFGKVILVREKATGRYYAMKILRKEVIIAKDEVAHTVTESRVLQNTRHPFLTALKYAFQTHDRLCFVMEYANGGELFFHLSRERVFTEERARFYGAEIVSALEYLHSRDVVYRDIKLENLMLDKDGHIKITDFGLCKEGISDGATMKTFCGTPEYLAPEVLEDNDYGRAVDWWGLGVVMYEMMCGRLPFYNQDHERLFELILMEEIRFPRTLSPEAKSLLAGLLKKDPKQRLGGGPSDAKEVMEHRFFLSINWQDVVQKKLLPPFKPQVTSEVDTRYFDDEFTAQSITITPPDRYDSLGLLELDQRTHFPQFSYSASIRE
Put plainly: Live cell target engagement by NanoBRET competitive probe displacement, AKT2. Type of assay: binding. The following applies: transfected HEK293 cells, 2 h at 37° C., read-out: AKT2 IC50: GeoMean IC50.

T1 sequence (P31749 whole entry E17K): as the sequence (P31749 whole entry) above, with E17K counted along it

Turning to `Cc1cc(-n2cccn2)nc2c1nc(-c1cccnc1N)n2-c1ccc2c(c1)CC[C@@H]2NC(=O)c1cc(C=O)c(O)c(F)c1F` [Example 153, (S)—N-(5-(2-(2-aminopyridin-3-yl)-7-methyl-5-(1H-pyrazol-1-yl)-3H-imidazo[4,5-b]pyridin-3-yl)-2,3-dihydro-1H-inden-1-yl)-2,3-difluoro-5-formyl-4-hydroxybenzamide], the IC50 (on AKT1 E17K; on AKT1 WT; in assay [1]; at AKT2) was 10 to 100 nM in each case.
Regarding `CN(C)S(=O)(=O)Nc1ccc(C(=O)N[C@H]2CCc3cc(-n4c(-c5cccnc5N)nc5ccc(-n6cccn6)nc54)ccc32)cc1C=O` [Example 154, N-[(1S)-5-[2-(2-aminopyridin-3-yl)-5-(pyrazol-1-yl)imidazo[4,5-b]pyridin-3-yl]-2,3-dihydro-1H-inden-1-yl]-4-[(dimethylsulfamoyl)amino]-3-formylbenzamide], the IC50 is < 10 nM at AKT1 E17K, 10 to 100 nM on AKT1 WT, 10 to 100 nM in assay [1] and 100 to 2000 nM at AKT2.
For the compound `C#Cc1ccc(C(=O)N[C@H]2CCc3cc(-n4c(-c5cccnc5N)nc5ccc(-n6cccn6)nc54)ccc32)cc1C=O` [Example 155, N-[(1S)-5-[2-(2-aminopyridin-3-yl)-5-(pyrazol-1-yl)imidazo[4,5-b]pyridin-3-yl]-2,3-dihydro-1H-inden-1-yl]-4-ethynyl-3-formylbenzamide], the IC50 is 10 to 100 nM at AKT1 E17K, 10 to 100 nM at AKT1 WT, ≥ 2000 nM in assay [1] and 10 to 100 nM on AKT2.
Turning to `Nc1ncccc1-c1nc2ccc(-n3ccc(N4CCC4)n3)nc2n1-c1ccc2c(c1)CC[C@@H]2NC(=O)c1ccc(O)c(C=O)c1` [Example 156, (S)—N-(5-(2-(2-aminopyridin-3-yl)-5-(3-(azetidin-1-yl)-1H-pyrazol-1-yl)-3H-imidazo[4,5-b]pyridin-3-yl)-2,3-dihydro-1H-inden-1-yl)-3-formyl-4-hydroxybenzamide], the IC50 at AKT1 E17K is 10 to 100 nM; at AKT1 WT, 10 to 100 nM; in assay [1] it was < 10 nM; at AKT2, 10 to 100 nM.
Take `Nc1ncccc1-c1nc2ccc(-c3ccn(C(F)F)n3)nc2n1-c1ccc2c(c1)CC[C@@H]2NC(=O)c1cc(C=O)c(O)c(F)c1F` [Example 157, (S)—N-(5-(2-(2-aminopyridin-3-yl)-5-(1-(difluoromethyl)-1H-pyrazol-3-yl)-3H-imidazo[4,5-b]pyridin-3-yl)-2,3-dihydro-1H-inden-1-yl)-2,3-difluoro-5-formyl-4-hydroxybenzamide]: the IC50 was < 10 nM at AKT1 E17K, 10 to 100 nM at AKT1 WT, 10 to 100 nM in assay [1] and 10 to 100 nM at AKT2.
In the case of `Nc1ncccc1-c1nc2ccc(-c3ccn(C(F)F)n3)nc2n1-c1ccc2c(c1)CC[C@@H]2NC(=O)c1cc(C=O)c(O)cc1F` [Example 158, N-[(1S)-5-[2-(2-aminopyridin-3-yl)-5-[1-(difluoromethyl)pyrazol-3-yl]imidazo[4,5-b]pyridin-3-yl]-2,3-dihydro-1H-inden-1-yl]-2-fluoro-5-formyl-4-hydroxybenzamide], the IC50 fell in the range of 10 to 100 nM at AKT1 E17K, 10 to 100 nM at AKT1 WT, 10 to 100 nM in assay [1] and 100 to 2000 nM on AKT2.
Consider `Nc1ncccc1-c1nc2ccc(-n3cccn3)nc2n1-c1ccc2c(c1)CC[C@@H]2NC(=O)c1cc(C=O)c(O)cc1O` [Example 159, (S)—N-(5-(2-(2-aminopyridin-3-yl)-5-(1H-pyrazol-1-yl)-3H-imidazo[4,5-b]pyridin-3-yl)-2,3-dihydro-1H-inden-1-yl)-5-formyl-2,4-dihydroxybenzamide], for which the IC50 at AKT1 E17K was 10 to 100 nM; at AKT1 WT it was 10 to 100 nM; in assay [1], 100 to 2000 nM; at AKT2, 100 to 2000 nM.
Consider `Nc1ncccc1-c1nc2ccc(-n3cc4c(n3)CNC4)nc2n1-c1ccc2c(c1)CC[C@@H]2NC(=O)c1ccc(O)c(C=O)c1` [Example 160, N-[(1S)-5-[2-(2-aminopyridin-3-yl)-5-{4H,5H,6H-pyrrolo[3,4-c]pyrazol-2-yl}imidazo[4,5-b]pyridin-3-yl]-2,3-dihydro-1H-inden-1-yl]-3-formyl-4-hydroxybenzamide], for which the IC50 at AKT1 E17K is 100 to 2000 nM; on AKT1 WT it was 100 to 2000 nM; in assay [1], ≥ 2000 nM; at AKT2, 100 to 2000 nM.
Regarding `Nc1ncccc1-c1nc2ccc(-c3ccccc3)nc2n1-c1ccc2c(c1)CC[C@@H]2NC(=O)c1ccc(B(O)O)c(C=O)c1` [Example 161, (S)-(4-((5-(2-(2-aminopyridin-3-yl)-5-phenyl-3H-imidazo[4,5-b]pyridin-3-yl)-2,3-dihydro-1H-inden-1-yl)carbamoyl)-2-formylphenyl)boronic acid], the IC50 on AKT1 E17K was 10 to 100 nM; at AKT1 WT, 10 to 100 nM; in assay [1], 100 to 2000 nM; on AKT2 it was 100 to 2000 nM.
In the case of `Nc1ncccc1-c1nc2ccc(-c3ccccc3)nc2n1-c1ccc2c(c1)CC[C@@H]2NC(=O)c1cc(C=O)c2[nH]cnc2c1` [Example 162, N-[(1S)-5-[2-(2-aminopyridin-3-yl)-5-phenylimidazo[4,5-b]pyridin-3-yl]-2,3-dihydro-1H-inden-1-yl]-7-formyl-1H-1,3-benzodiazole-5-carboxamide], the IC50 at AKT1 E17K is < 10 nM; on AKT1 WT it was < 10 nM; in assay [1], 10 to 100 nM; at AKT2, < 10 nM.
With `Nc1ncc(F)cc1-c1nc2ccc(-n3cccn3)nc2n1-c1ccc2c(c1)CC[C@@H]2NC(=O)c1ccc(O)c(C=O)c1` [Example 163, (S)—N-(5-(2-(2-amino-5-fluoropyridin-3-yl)-5-(1H-pyrazol-1-yl)-3H-imidazo[4,5-b]pyridin-3-yl)-2,3-dihydro-1H-inden-1-yl)-3-formyl-4-hydroxybenzamide], the IC50 was 10 to 100 nM at AKT1 E17K, 10 to 100 nM at AKT1 WT, ≥ 2000 nM in assay [1] and ≥ 2000 nM at AKT2.
Turning to `CN1CC(n2ccc(-c3ccc4nc(-c5cccnc5N)n(-c5ccc6c(c5)CC[C@@H]6NC(=O)c5ccc(O)c(C=O)c5)c4n3)n2)C1` [Example 165, (S)—N-(5-(2-(2-aminopyridin-3-yl)-5-(1-(1-methylazetidin-3-yl)-1H-pyrazol-3-yl)-3H-imidazo[4,5-b]pyridin-3-yl)-2,3-dihydro-1H-inden-1-yl)-3-formyl-4-hydroxybenzamide], the IC50 at AKT1 E17K was 10 to 100 nM; on AKT1 WT, 10 to 100 nM; in assay [1], 100 to 2000 nM; on AKT2, 100 to 2000 nM.
As to `Cc1ccc(-c2nc3ccc(-n4cccn4)nc3n2-c2ccc3c(c2)CC[C@@H]3NC(=O)c2ccc(O)c(C=O)c2)c(N)n1` [Example 166, (S)—N-(5-(2-(2-amino-6-methylpyridin-3-yl)-5-(1H-pyrazol-1-yl)-3H-imidazo[4,5-b]pyridin-3-yl)-2,3-dihydro-1H-inden-1-yl)-3-formyl-4-hydroxybenzamide], the IC50 (on AKT1 E17K; on AKT1 WT; in assay [1]; at AKT2) was ≥ 2000 nM each time.
Consider `Cc1cnc(N)c(-c2nc3ccc(-n4cccn4)nc3n2-c2ccc3c(c2)CC[C@@H]3NC(=O)c2ccc(O)c(C=O)c2)c1` [Example 167, (S)—N-(5-(2-(2-amino-5-methylpyridin-3-yl)-5-(1H-pyrazol-1-yl)-3H-imidazo[4,5-b]pyridin-3-yl)-2,3-dihydro-1H-inden-1-yl)-3-formyl-4-hydroxybenzamide], for which the IC50 on AKT1 E17K was 100 to 2000 nM; at AKT1 WT, 100 to 2000 nM; in assay [1], ≥ 2000 nM; on AKT2, 100 to 2000 nM.
In the case of `Nc1ncccc1-c1nc2ccc(-n3cccn3)nc2n1-c1ccc2c(c1)CC[C@@H]2NC(=O)c1cc(C=O)c(O)c(OC(F)F)c1` [Example 168, (S)—N-(5-(2-(2-aminopyridin-3-yl)-5-(1H-pyrazol-1-yl)-3H-imidazo[4,5-b]pyridin-3-yl)-2,3-dihydro-1H-inden-1-yl)-3-(difluoromethoxy)-5-formyl-4-hydroxybenzamide], the IC50 is 10 to 100 nM at AKT1 E17K, 10 to 100 nM on AKT1 WT, 100 to 2000 nM in assay [1] and 100 to 2000 nM on AKT2.
Consider `Nc1ncccc1-c1nc2ccc(-n3cccn3)nc2n1-c1ccc2c(c1)CC[C@@H]2NC(=O)c1cc(C=O)c(O)c2nccn12` [Example 169, N-[(1S)-5-[2-(2-aminopyridin-3-yl)-5-(pyrazol-1-yl)imidazo[4,5-b]pyridin-3-yl]-2,3-dihydro-1H-inden-1-yl]-7-formyl-8-hydroxyimidazo[1,2-a]pyridine-5-carboxamide], for which the IC50 on AKT1 E17K was ≥ 2000 nM; on AKT1 WT, ≥ 2000 nM; in assay [1], 100 to 2000 nM; at AKT2, ≥ 2000 nM.
Consider `Cn1c(=O)[nH]c2c(C=O)cc(C(=O)N[C@H]3CCc4cc(-n5c(-c6cccnc6N)nc6ccc(-n7cccn7)nc65)ccc43)cc21` [Example 170, (S)—N-(5-(2-(2-aminopyridin-3-yl)-5-(1H-pyrazol-1-yl)-3H-imidazo[4,5-b]pyridin-3-yl)-2,3-dihydro-1H-inden-1-yl)-7-formyl-3-methyl-2-oxo-2,3-dihydro-1H-benzo[d]imidazole-5-carboxamide], for which the IC50 on AKT1 E17K was < 10 nM; on AKT1 WT it was < 10 nM; in assay [1] it was 10 to 100 nM; on AKT2, 100 to 2000 nM.
